Test results reported in patent US10946036B2, “Use of myostatin inhibitors and combination therapies” (Scholar Rock, Inc., priority 2016, dated 2021).
“Also recorded” adds a separate entry of the source. Read-outs that look alike come from different tables or passages of the source.

Assays:
[1] = tested on: infantile-onset SMA (type I) patients; details: cited from earlier work
Type II SMA patients = details: cited from earlier work; for HFMSE score increase relative to placebo group: mean
SMA patients = details: human, in vivo; cited from earlier work
mature BMP9 = target: T1, mature BMP9 (Homo sapiens, UniProt Q9UK05); test: Binding specificity: mature BMP9
T1 sequence (Q9UK05 320-429): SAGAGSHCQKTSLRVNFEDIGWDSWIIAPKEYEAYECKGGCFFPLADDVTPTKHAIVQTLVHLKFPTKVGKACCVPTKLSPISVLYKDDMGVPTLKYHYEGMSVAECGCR

[2] = tested on: dexamethasone treated mice; test: Dexamethasone-induced muscle atrophy in mice; type: in vivo, mouse
Text: (§1) FIG. 2A and FIG. 2B provide a summary of dexamethasone-induced atrophy in mice: FIG. 2A illustrates the experimental model of single-dose SRK-015 treatment in healthy and atrophy-induced mice; FIG. 2B provides changes in gastrocnemius muscle weights measured at the indicated time points.
(§2) SRK-015 increased muscle mass in healthy animals and reduced muscle loss in a dexamethasone-induced model of atrophy. […] SRK-015 was also effective in preventing muscle loss upon dexamethasone treatment.

murine proMyostatin = test: Binding to murine proMyostatin; parameters: species or system mouse
cynomolgus monkeys = test: Muscle weights in cynomolgus monkeys; type: in vivo
Protocol: (§3) SRK-015 PK properties were also determined in cynomolgus monkeys. Two- to three-year old male animals (average age 34 months) were administered weekly doses of 3 mg/kg or 30 mg/kg SRK-015 for 8 weeks. Following the last dose, animals were followed for an additional five weeks in the absence of drug administration. Samples from this post-dosing period were used to calculate PK parameters. […] Antibody levels were assessed by ELISA.
(§4) At study termination animals were sacrificed five weeks after the last dose as described in above and muscle weights were determined. Gastrocnemius and Biceps brachii muscles (FIG. 10A and FIG. 10B, respectively) show increased mass following SRK-015 treatment. Gastrocnemius weights increased 21% in the 3 mg/kg groups, and 23% in the 30 mg/kg groups relative to vehicle control. * indicates statistically significant difference from vehicle by one-way ANOVA; P<0.007. Biceps brachii weights increased 18% in the 3 mg/kg groups, and 25% in the 30 mg/kg group relative to vehicle control. * indicates statistically significant difference from vehicle by one-way ANOVA; P<0.02. […] Serum samples were collected at the indicated study day and analyzed by semi-quantitative western blot analysis. Accumulation of latent myostatin, indicative of SRK-015 binding, is evident by day 8. Target continues to accumulate as additional doses are administered. Latent myostatin levels were quantified as described in Example 7 above. The effects of SRK-015 on muscle weight indicate that even at lower end of dosage (e.g., 3 mg/kg/week) SRK-015 is at or near the level of target engagement necessary for maximal efficacy.

GDF11 = test: Binding specificity: GDF11; details: any form of GDF11
mature TGFβ1 = mature TGFβ1 (Homo sapiens, UniProt P01137); test: Binding specificity: mature TGFβ1
[3] = Pharmacokinetics in cynomolgus monkeys, ELISA; type: in vivo; details: for T1/2: post-dosing period
Protocol: as §3

healthy male mice = test: Muscle mass in healthy mice after single dose; type: in vivo, mouse; details: single 20 mg/kg dose, after 15 days
Text: as §1, §2

latent myostatin [4] = target: T2, latent myostatin (Mus musculus, UniProt O08689); test: Target engagement in serum and muscle of scid mice, western blot; type: in vivo; details: single 5 mg/kg dose
T2 construct: from tissue; host or cells: mouse serum and tibialis anterior muscle
Protocol: (§5) Male scid mice were administered a single 5 mg/kg IV dose of SRK-015. Separate cohorts of mice were sacrificed 4 hours, 2, 8, 15, 22, 29, and 56 days post dose, and serum and TA muscles collected for PK and target engagement assays. N=4 or 8 per group. SRK-015 levels were determined from serum samples taken at the indicated times after dosing. Analysis was performed using an anti-human IgG ELISA. The half-life of SRK-015 in scid mice at 5 mg/kg was ˜20.3 days.
(§6) Lean mass was measured with qNMR at the indicated timepoints after dosing. […] Target engagement was assessed by analyzing levels of latent myostatin in serum and muscle using western blot. Binding to SRK-015 results in accumulation of latent myostatin as the bound target assumes the half-life of the antibody and accumulates in circulation and in the target tissues. […] Samples from three mice from each cohort were analyzed.

mature myostatin = mature myostatin (Homo sapiens, UniProt O14793); test: Mature myostatin signaling in Smad2/3 reporter assay; type: cell-based
latent myostatin [5] = target: T3, latent myostatin (Homo sapiens, UniProt O14793); test: TLL-2 tolloid cleavage of latent myostatin, Western blot; type: biochemical; details: increasing antibody concentrations
T3 construct: Following cleavage, the growth factor and prodomain remain associated, forming a latent complex (latent myostatin)
Text: (§7) Antibody SRK-015P (“P” for parental) was optimized to generate SRK-015, a fully human monoclonal antibody. SRK-015 differs from its parental clone by five residues in the variable domain outside the complementarity determining region. […] Both SRK-015 and SRK-015P had similar functional activity towards human and mouse proMyostatin in the reporter assay such that EC50 values for the two antibodies in proMyostatin activation assay using human and mouse proMyostatin, are similar. […] The ability of SRK-015 to bind the myostatin prodomain and to inhibit tolloid cleavage has been shown. Purified recombinant latent myostatin was incubated with TLL-2 tolloid protease in the presence of increasing concentrations of SRK-015. Samples were separated by reducing SDS-PAGE and probed by Western blot with an antibody that recognizes the myostatin prodomain.

proGDF11 = proGDF11 (Homo sapiens, UniProt O95390); test: Protease activity reporter assay using proGDF11 as substrate; type: cell-based
mature BMP10 = target: T4, mature BMP10 (Homo sapiens, UniProt O95393); test: Binding specificity: mature BMP10
T4 sequence (O95393 317-424): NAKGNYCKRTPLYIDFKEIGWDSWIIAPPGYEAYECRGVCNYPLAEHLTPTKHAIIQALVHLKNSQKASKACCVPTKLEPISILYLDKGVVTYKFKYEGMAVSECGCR

Activin A = test: Binding specificity: Activin A; details: any form
mature GDF-8 = mature GDF-8 (Homo sapiens, UniProt O14793); test: Binding specificity: mature GDF-8
Protocol: In some embodiments, suitable dosage of SRK-015 for administration in human patients for the treatment of SMA ranges between 1 and 30 mg/kg, e.g., 1-5 mg/kg, 3-5 mg/kg, 3-10 mg/kg, 5-10 mg/kg, 5-15 mg/kg, 5-20 mg/kg, 10-20 mg/kg, etc. In some embodiments, the patient is administered SRK-015 once a week, once every two weeks, once every three weeks, once a month, once every six weeks, etc.

latent myostatin [6] = target: T5, latent myostatin (Macaca fascicularis, UniProt Q95J86); test: Target engagement in cynomolgus serum, semi-quantitative western blot; type: in vivo, cynomolgus monkeys; details: 3 mg/kg or 30 mg/kg weekly
T5 construct: from tissue; host or cells: cynomolgus monkey serum
Protocol: as §4

proMyostatin [7] = target: T6, proMyostatin (Homo sapiens, UniProt O14793); test: proMyostatin activation reporter assay, human proMyostatin; type: cell-based
T6 construct: made in house; host or cells: mammalian expression system
Text: as §7

proMyostatin [8] = target: T6, proMyostatin; test: proMyostatin activation assay, Smad2/3 luciferase reporter cell line; type: cell-based; details: proMyostatin incubated with furin and mTTL-2 proteases
Text: as §7

mouse proMyostatin = target: T7, mouse proMyostatin (Mus musculus, UniProt O08689); test: proMyostatin activation reporter assay, mouse proMyostatin; type: cell-based
T7 construct: made in house; host or cells: mammalian expression system
Text: as §7

scid mice = test: Lean mass by qNMR in scid mice; type: in vivo, mouse; details: single 5 mg/kg dose
Protocol: as §5, §6

[9] = Pharmacokinetics in scid mice, anti-human IgG ELISA; type: in vivo, mouse; details: single 5 mg/kg IV dose, serum
Protocol: as §5

[10] = tested on: preclinical models of SMA (mice); details: cited from earlier work; for blood brain barrier (BBB) crossing: mouse, in vivo; for SMN protein levels compared to vehicle: oral dosing, brain and muscle
Δ7 mice = details: 0.1 mg/kg/day from birth; cited from earlier work
[11] = in vivo; cited from earlier work
[12] = 3 mg/kg weekly x8, five weeks after last dose
[13] = 30 mg/kg weekly x8, five weeks after last dose

Chain of mature TGFβ1 (P01137 279-390 limits assumed): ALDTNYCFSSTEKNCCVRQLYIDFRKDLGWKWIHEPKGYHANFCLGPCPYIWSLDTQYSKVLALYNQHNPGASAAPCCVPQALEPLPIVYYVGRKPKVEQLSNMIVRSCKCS
Chain of proGDF11 (O95390 299-407): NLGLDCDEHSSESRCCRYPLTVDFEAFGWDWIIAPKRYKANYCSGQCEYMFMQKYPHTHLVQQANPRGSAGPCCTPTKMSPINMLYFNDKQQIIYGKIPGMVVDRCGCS

Compound: nusinersen
- treated patients able to sit unaided ([1]; Type I patients): five of 81
- patients reported to be non-responders ([1]; infantile-onset SMA (type I)): 60%
- treated patients with improvements in motor milestones (Hammersmith Infant Neurological Examination) ([1]; interim analysis, 0% placebo): 41%
- patients not attaining at least 3-point HFMSE improvement (Type II SMA patients; in vivo): 43%
- HFMSE score increase relative to placebo group (Type II SMA patients): 5.9 points
- HFMSE score increase relative to placebo group (Type II SMA patients; listed as Nusinersen): less than 6 points
- compound muscle action potential (CMAP) amplitudes (SMA patients): improvements

Compound: SRK-015: fully human monoclonal antibody optimized from SRK-015P; binds pro/latent myostatin and inhibits release of mature growth factor
- binding to mature BMP9 (mature BMP9): no detectable binding
- muscle atrophy under dexamethasone ([2]; single 20 mg/kg dose, throughout the study): prevented muscle atrophy
- Kd (murine proMyostatin): 8.35 nM
- Biceps brachii weight increase relative to vehicle control (cynomolgus monkeys; [12]): 18%
- Gastrocnemius weight increase relative to vehicle control (cynomolgus monkeys; [12]): 21%
- Biceps brachii weight increase relative to vehicle control (cynomolgus monkeys; [13]): 25%
- Gastrocnemius weight increase relative to vehicle control (cynomolgus monkeys; [13]): 23%
- binding to GDF11 (GDF11): does not bind; also recorded: no detectable binding
- binding to mature TGFβ1 (mature TGFβ1): no detectable binding
- AUClast ([3]; 3 mg/kg weekly for 8 weeks): 60799 hr▪ng/ml
- Cmax ([3]; 3 mg/kg weekly for 8 weeks): 243 ng/mL
- Tmax ([3]; 3 mg/kg weekly for 8 weeks): 51 h
- T1/2 ([3]; 3 mg/kg weekly for 8 weeks): 12.4 h
- AUClast ([3]; 30 mg/kg weekly for 8 weeks): 1070638 hr▪ng/ml
- Cmax ([3]; 30 mg/kg weekly for 8 weeks): 2648 ng/mL
- Tmax ([3]; 30 mg/kg weekly for 8 weeks): 15 h
- T1/2 ([3]; 30 mg/kg weekly for 8 weeks): 22.2 h
- increase in muscle mass versus IgG control (healthy male mice): 17.5%
- onset of significant target engagement in circulation (latent myostatin [4]): within four hours
- onset of significant target engagement in muscle (latent myostatin [4]): within two days
- target engagement at 56 days post-dosing (latent myostatin [4]): no longer observed
- target engagement sustained out to (latent myostatin [4]): 29 days post dose
- inhibition of mature myostatin signaling (mature myostatin): did not inhibit
- tolloid-mediated cleavage of latent myostatin (latent myostatin [5]): inhibited the second (tolloid-mediated) proteolysis step
- effect in protease activity assay with proGDF11 (proGDF11): no effect
- binding to mature BMP10 (mature BMP10): no detectable binding
- binding to Activin A (Activin A): no detectable binding
- binding to mature GDF-8 (mature GDF-8): does not bind
- target engagement in serum (latent myostatin [6]): engaged latent myostatin at both doses tested
- accumulation of latent myostatin evident by (latent myostatin [6]; serum): ≤ 8 days
- EC50 in proMyostatin activation assay, the two antibodies compared (proMyostatin [7]): similar
- release of mature myostatin, measured by luciferase expression (proMyostatin [8]): inhibited release of mature myostatin
- EC50 in proMyostatin activation assay, the two antibodies compared (mouse proMyostatin): similar
- lean mass relative to IgG control (scid mice): significant increase in lean mass
- half-life [9]: ~487 h

Compound: CCN1CCC(c2cc(C)c3nc(-c4cc5c(C)nc(C)cn5n4)cc(=O)n3c2)CC1 [SMN-C3]
- blood brain barrier (BBB) crossing [10]: efficiently crossed the blood brain barrier
- SMN protein levels compared to vehicle [10]: increased SMN protein levels in both brain and muscle tissues

Compound: CCN1CCN(c2ccc3cc(-c4cn5cc(C)nc(C)c5n4)c(=O)oc3c2)C[C@@H]1C [SMN-C2]
- blood brain barrier (BBB) crossing [10]: efficiently crossed the blood brain barrier
- SMN protein levels compared to vehicle [10]: increased SMN protein levels in both brain and muscle tissues

Compound: Cc1cn2cc(-c3cc4ccc(N5CCN(C)CC5)cc4c(=O)o3)nc2c(C)n1 [SMN-C1]
- treated mice surviving to post-natal day (PND) 52 (Δ7 mice): 70%

Compound: C[C@@H]1C[C@H]2[C@@H]3CCC4=CC(=O)C=C[C@]4(C)[C@@]3(F)[C@@H](O)C[C@]2(C)[C@@]1(O)C(=O)CO [dexamethasone, reference compound]
- loss of muscle mass, IgG vehicle versus IgG Dex ([2]; chronic administration, by day 8): 16%

Compound: CCc1nc(C)cn2nc(-c3cc(=O)n4cc(C5CCN(C)CC5)cc(C)c4n3)cc12 [RG7800]
- blood brain barrier (BBB) crossing [10]: efficiently crossed the blood brain barrier
- SMN protein levels compared to vehicle [10]: increased SMN protein levels in both brain and muscle tissues

Compound: CC1(C)CC(Oc2ccc(-c3ccc(-c4cn[nH]c4)cc3O)nn2)CC(C)(C)N1 [LMI070]
- preclinical toxicity findings [11]: injuries to the peripheral nerves and spinal cord, testes, and blood vessels in the kidney
